# Tests used:
# PAF induced lethality = PAF induced lethality in mice; type: in vivo; details: PAF 150 μg/kg IV
# Method: PAF given I.V. to mice causes an immediate hypotensive shock leading to death in 1 hour or less. Compounds are given intraperitoneally or P.O. at various times before the PAF challenge. Animals alive after 2 hours are counted and the activity of test compounds expressed as % survival corrected for any control (saline treated) animals which survived the PAF challenge.
# Effect of Compound Given I.V. or P.O. in Protecting
# Mice from a Lethal Challenge of PAF^a
# ^a lethal challenge of PAF is 150 μg/kg IV.
# PAF receptor = target: T1, PAF receptor (Oryctolagus cuniculus, UniProt G1TEI7); assay: Platelet Activating Factor antagonism in vitro: inhibition of PAF induced platelet aggregation in rabbit platelet rich plasma; type: cell-based, rabbit (New Zealand White)
# T1 construct: centrifuged at 800 rpm for 10-15 minutes at room temperature to recover the platelet rich plasma (PRP); endogenous in cells; host or cells: platelets in citrated platelet rich plasma from male New Zealand White rabbits (Oryctolagus cuniculus)
# T1 sequence (G1TEI7 1-342): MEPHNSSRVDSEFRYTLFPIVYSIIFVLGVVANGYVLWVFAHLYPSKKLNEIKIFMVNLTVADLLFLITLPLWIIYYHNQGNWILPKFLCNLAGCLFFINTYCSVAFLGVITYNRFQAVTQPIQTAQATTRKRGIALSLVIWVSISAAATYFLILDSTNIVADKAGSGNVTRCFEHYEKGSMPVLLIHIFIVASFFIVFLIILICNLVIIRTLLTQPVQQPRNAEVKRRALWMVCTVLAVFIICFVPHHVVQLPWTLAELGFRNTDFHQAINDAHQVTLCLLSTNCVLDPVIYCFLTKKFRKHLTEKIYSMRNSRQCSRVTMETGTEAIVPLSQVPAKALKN
# Method: Test compounds are evaluated as PAF receptor antagonists in vitro by measuring inhibition of PAF (platelet activating factor) induced platelet aggregation. Platelet aggregation is measured by a modification of the method described in […], et. al., J. Med. Chem., 27 1174, 1984. […] All syringes and pipets are plastic. The blood is gently mixed and immediately centrifuged at 800 rpm for 10-15 minutes at room temperature to recover the platelet rich plasma (PRP). Platelet poor plasma (PPP) is prepared by centrifuging PRP at 2800 rpm for 10 minutes at room temperature. Dilutions (1:3000) of PRP in Isoton® diluent are made and platelet counts are determined on a Coulter Thrombocounter which is standardized with platelet reference standards (Interscience Platelet Control, Portland, Oreg.). PRP platelet counts are adjusted to approximately 400,000-500,000 platelets/μl by the addition of PPP. L-PAF (Platelet Activating Factor) is obtained from Calbiochem. […] All solutions are made up in plastic tubes, stored on ice and protected from heat and light. Solutions are prepared fresh or frozen at -20° C. and used within 48 hours. Incubation mixtures consisted of 400 μl PRP, 50 μl of saline diluent or test compound and 50 μl of PAF agonist. More specifically, 400 μl of PRP is stabilized in a cuvette for 1-2 minutes at 37° C. in the aggregometer to achieve a stable baseline, then 50 μl of saline or test compound is added and incubated for 5 minutes before addition of the challenge concentration of PAF. A submaximal concentration is determined from the dose response curve for PAF for that experiment. In general, the challenge concentration is 5E-8 or IE-7M. Aggregation is monitored for 5 minutes. Samples containing test compound or diluent are run simultaneously for comparison. Test compounds are initially evaluated at a screening concentration of 1E-5M. […] The recording equipment consists of a dual channel Chronolog aggregometer connected to a dual channel 10MV full scale deflection Omniscribe chart recorder (Houston Instruments). The chart recorder is calibrated daily with the use of a suspension of Bio-Rad latex beads (S-X 12 400 mesh) which has a density slightly greater than rabbit PRP. […] These limits defined a full scale deflection. The aggregation traces are analyzed by a digitizing method (C. Kohler and B. Zoltan, J. Pharm. Methods, 12, 113, 1984) with x, y coordinate data stored in a computer file. A suitable program computes parameters of interest such as the magnitude of aggregation. | ^a dose of compound that gives the indicated % inhibition. | ^b the % inhibition of PAF induced platelet aggregation. | ^c the molar concentration of compound that will inhibit 50% of the | platelet aggretation induced by PAF given at the indicated PAF challenge | concentration.
# [1] = test system: Endotoxin induced shock and mortality; assay: Endotoxin induced shock and mortality in mice: low dose, chronic mouse endotoxemia; type: in vivo, Male Balb/c mice; details: dose 10 mg/kg i.p.
# From the text: (§1) Endotoxin administration produces a shock-like state characterized by vascular permeability changes, hypotension, neutropenia, thrombocytopenia,multiple organ damage and death. The major mediators released after endotoxin injection are TNF (tumor necrosis factor), PAF (platelet activating factor) and […] (interleukin I). PAF administration mimics the signs and symptoms of endotoxin induced shock and death and endotoxin also induces the release of PAF. Therefore, the effects of endotoxin should be blocked with a PAF antagonist.
# (§2) Male Balb/c mice (approximately 20 g) are obtained from Charles River Laboratories and used after a one-two week acclimation period. Animals are given (ip) test compound dissolved in saline or water (sonicated and heated) at different time intervals prior to and after the ip injection of endotoxin (usually 2 hours before LPS endotoxin, and 3-4 hours after). Sigma E. Coli endotoxin, 0111:B4, phenol extraction, catalog #L2630 is used for these studies.
# For the chronic endotoxin shock model, a lower dose of endotoxin is administered (generally 15 to 20 mg/kg i.p). This dose gives an LD80 in two to four days following LPS administration. Test compounds are given 2 hours before LPS and 3-4 hours after on the first day, followed by 3 or 4 consecutive days of BID dosing. The number of survivors in each group is recorded each day for a period of 5 to 7 days.
# Effect of Compounds Given i.p. in Low Dose, Chronic Mouse Endoxemia
# [2] = test system: Endotoxin induced shock and mortality; assay: Endotoxin induced shock and mortality in mice: high dose acute mouse endotoxemia; type: in vivo, Male Balb/c mice; details: administered ip prior to a lethal ip injection of endotoxin
# From the text: as §1, §2
# This LD value is approximately 50 mg/kg i.p. The number of survivors in each group (control or treated with test compound) is recorded after 24, 48 or 72 hours and the treated groups (receiving test compound and endotoxin) are compared with the untreated, control group (receiving endotoxin only) or saline control (receiving saline and endotoxin).
# Effect of Compounds Given I.P. in High Dose Acute Mouse Endotoxemia […]
smiles,measurement,setting,value
CCCCCCCCCCCCCCOc1cccc(CC(=O)Nc2cccc(C[n+]3csc(C)c3)c2)c1.[Br-] [5-Methyl-3-[[3-[[[3-(tetradecyloxy)phenyl]acetyl]amino]phenyl]methyl]thiazolium bromide],% Survival,PAF induced lethality; P.O. 5 mg/kg,40%
same,% Survival,PAF induced lethality; P.O. 20 mg/kg,59%
same,% INH (inhibition of PAF induced platelet aggregation),"PAF receptor; dose .00001 M, PAF chall conc 5E-9 M",100.0%
same,PAF antagonism (in words),PAF receptor; in vitro platelet aggregation studies,known to be a PAF antagonist
same,% Survival,[1]; day 0,100%
same,No Surv./tot.,[1]; day 0,30/30
same,% Survival,[1]; day 1,100%
same,No Surv./tot.,[1]; day 1,30/30
same,% Survival,[1]; day 2,63%
same,No Surv./tot.,[1]; day 2,19/30
same,% Survival,[1]; day 3,46%
same,No Surv./tot.,[1]; day 3,14/30
same,% Survival,[1]; day 4,43%
same,No Surv./tot.,[1]; day 4,13/30
same,% Survival,[1]; day 5,43%
same,No Surv./tot.,[1]; day 5,12/30
same,No Surv./tot.,[1]; day 6,12/30
same,% Survival,[1]; day 7,43%
same,No Surv./tot.,[1]; day 7,12/30
same,activity against lethal ip injection of endotoxin,[2],did show some activity

# Source: patent US5231182A, “Method of making certain aryl containing amides” (American Cyanamid Company, priority 1991, dated 1993)
